In patent publication US20100016396A1, “PYRAZOLE COMPOUND” (priority 2007, published 2010):
pEC50: −log10 of the molar value.

Molecular target: T1, PPARγ-RXRα heterodimer (Homo sapiens, UniProt P37231)
T1 construct: expressed in transfected cells; host or cells: CHO-K1
T1 sequence (P37231 1-505): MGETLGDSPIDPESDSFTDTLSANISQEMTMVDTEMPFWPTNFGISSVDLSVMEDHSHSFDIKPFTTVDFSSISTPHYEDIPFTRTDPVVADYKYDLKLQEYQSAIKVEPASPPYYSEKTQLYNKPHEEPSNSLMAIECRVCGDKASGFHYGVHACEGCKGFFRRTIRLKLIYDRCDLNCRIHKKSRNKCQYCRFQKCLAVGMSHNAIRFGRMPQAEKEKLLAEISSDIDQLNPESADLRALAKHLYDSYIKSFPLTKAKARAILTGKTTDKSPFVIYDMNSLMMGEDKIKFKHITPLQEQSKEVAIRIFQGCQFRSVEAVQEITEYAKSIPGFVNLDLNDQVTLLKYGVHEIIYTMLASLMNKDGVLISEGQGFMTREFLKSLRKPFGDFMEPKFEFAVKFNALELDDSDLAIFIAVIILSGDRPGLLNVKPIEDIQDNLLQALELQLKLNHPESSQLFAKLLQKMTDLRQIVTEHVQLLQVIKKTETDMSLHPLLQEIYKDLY
T1 sequence (P19793 1-462 partner): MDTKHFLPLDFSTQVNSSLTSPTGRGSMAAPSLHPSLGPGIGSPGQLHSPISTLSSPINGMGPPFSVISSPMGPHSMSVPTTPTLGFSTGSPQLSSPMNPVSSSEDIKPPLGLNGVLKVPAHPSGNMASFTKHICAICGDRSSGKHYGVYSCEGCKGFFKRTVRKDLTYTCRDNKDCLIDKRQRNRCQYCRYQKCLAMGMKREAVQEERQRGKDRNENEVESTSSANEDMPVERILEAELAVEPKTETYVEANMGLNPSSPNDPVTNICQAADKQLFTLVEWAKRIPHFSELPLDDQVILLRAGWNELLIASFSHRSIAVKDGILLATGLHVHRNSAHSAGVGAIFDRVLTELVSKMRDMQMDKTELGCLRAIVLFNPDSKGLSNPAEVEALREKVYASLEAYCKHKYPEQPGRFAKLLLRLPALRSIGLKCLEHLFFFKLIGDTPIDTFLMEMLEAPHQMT
Experiment: PPARγ-RXRα heterodimer ligand activity (luciferase reporter in PPARγ:RXRα:4ERPP/CHO-K1 cells)
Type: cell-based
Settings: luciferase induction ratio, 1 day culture, concentration showing 50% of the maximum induction ratio
Description: PPARγ:RXRα:4ERPP/CHO-K1 cells described in WO03/099793 were cultured in hamF12 medium [manufactured by Life Technologies, Inc., USA] supplemented with 10% fetal bovine serum [manufactured by Life Technologies, Inc., USA], plated on a 96 well white half area plate [manufactured by Corning Coster Corporation, USA] at 1×10^4 cells/well and cultured overnight in a carbon dioxide gas incubator at 37° C.
The medium was removed from the 96 well white half area plate, 45 μl of hamF12 medium containing 0.1% fatty acid-free bovine serum albumin (BSA) and 5 μl of a test compound were added, and the cells were cultured in a carbon dioxide gas incubator at 37° C. for 1 day. The medium was removed, and 20 μl of PicaGene 7.5 (manufactured by Wako Pure Chemical Industries, Ltd.) diluted 2-fold with HBSS (HANKS' BALANCED SALT SOLUTION) [manufactured by BIO WHITTAKER, USA] was added. After stirring, the luciferase activity was measured using a 1420 ARVO Multilabel Counter [manufactured by Perkin Elmer Inc., USA].
The induction ratio was calculated from the luciferase activity of each test compound relative to the luciferase activity of the test compound non-administration group as 1. The concentration of the test compound and the induction ratio were analyzed using PRISM [manufactured by GraphPad Software, Inc., USA] and EC50 value (concentration of compound showing 50% of the maximum induction ratio) of the test compound was calculated.

Compound	pEC50
Cc1nn(C)c(Oc2cc(O[C@@H](C)C(=O)O)c(Cl)cc2Cl)c1C [Example 1, (2S)-2-{2,4-dichloro-5-[(1,3,4-trimethyl-1H-pyrazol-5-yl)oxy]phenoxy}propionic acid]	7.62
C=Cc1c(C(F)(F)F)nn(C)c1Oc1cc(O[C@@H](C)C(=O)O)c(Cl)cc1Cl [Example 20, (2S)-2-(2,4-dichloro-5-{[1-methyl-3-(trifluoromethyl)-4-vinyl-1H-pyrazol-5-yl]oxy}phenoxy)propionic acid]	8.43
C=Cc1c(CCC)nn(C)c1Oc1cc(O[C@@H](C)C(=O)O)c(Cl)cc1Cl [Example 41, (2S)-2-{2,4-dichloro-5-[(1-methyl-3-propyl-4-vinyl-1H-pyrazol-5-yl)oxy]phenoxy}propionic acid]	8.62
Cc1nn(C)c(Oc2cc(O[C@@H](C)C(=O)O)c(Cl)cc2Cl)c1/C=N/O [Example 104, (2S)-2-[2,4-dichloro-5-({4-[(E)-(hydroxyimino)methyl]-1,3-dimethyl-1H-pyrazol-5-yl}oxy)phenoxy]propionic acid]	7.60
CCNC(=O)OCCCc1c(C)nn(C)c1Oc1cc(O[C@@H](C)C(=O)O)c(Cl)cc1Cl [Example 298, (2S)-2-(2,4-dichloro-5-{[4-(3-{[(ethylamino)carbonyl]oxy}propyl)-1,3-dimethyl-1H-pyrazol-5-yl]oxy}phenoxy)propionic acid]	7.77
Cc1nn(C)c(Oc2cc(O[C@@H](C)C(=O)O)c(Cl)cc2Cl)c1C#N [Example 106, (2S)-2-{2,4-dichloro-5-[(4-cyano-1,3-dimethyl-1H-pyrazol-5-yl)oxy]phenoxy}propionic acid]	6.92
Cc1nn(C)c(Oc2cc(O[C@@H](C)C(=O)O)c(Cl)cc2Cl)c1C=NOCc1ccccc1 [Example 125, (2S)-2-{5-[(4-{[(benzyloxy)imino]methyl}-1,3-dimethyl-1H-pyrazol-5-yl)oxy]-2,4-dichlorophenoxy}propionic acid]	8.51
CCC/C=C/c1c(C)nn(C)c1Oc1cc(O[C@@H](C)C(=O)O)c(Cl)cc1Cl [Example 89, (2S)-2-[2,4-dichloro-5-({1,3-dimethyl-4-[(1E)-1-penten-1-yl]-1H-pyrazol-5-yl}oxy)phenoxy]propionic acid]	8.70
Cc1nn(C)c(Sc2cc(O[C@@H](C)C(=O)O)c(Cl)cc2Cl)c1C#N [Example 210, (2S)-2-{2,4-dichloro-5-[(4-cyano-1,3-dimethyl-1H-pyrazol-5-yl)thio]phenoxy}propionic acid]	8.00
C=Cc1c(C)nn(C)c1Oc1cc(O[C@@H](C)C(=O)O)c(Cl)cc1Cl [Example 14, (2S)-2-{2,4-dichloro-5-[(1,3-dimethyl-4-vinyl-1H-pyrazol-5-yl)oxy]phenoxy}propionic acid]	8.30
CON=Cc1c(C)nn(C)c1Oc1cc(O[C@@H](C)C(=O)O)c(Cl)cc1Cl [Example 123, (2S)-2-[2,4-dichloro-5-({4-[(methoxyimino)methyl]-1,3-dimethyl-1H-pyrazol-5-yl}oxy)phenoxy]propionic acid]	8.39

Continued by rising pEC50, values first:

pEC50	Compound
7.66	Cc1cc(Br)c(O[C@@H](C)C(=O)O)cc1Oc1c(C#N)c(C2CC2)nn1C [Example 256, (2S)-2-{2-bromo-5-[(4-cyano-3-cyclopropyl-1-methyl-1H-pyrazol-5-yl)oxy]-4-methylphenoxy}propionic acid]
7.89	Cc1c(C(F)(F)F)nn(C)c1Oc1cc(O[C@@H](C)C(=O)O)c(Cl)cc1Cl [Example 74, (2S)-2-(2,4-dichloro-5-{[1,4-dimethyl-3-(trifluoromethyl)-1H-pyrazol-5-yl]oxy}phenoxy)propionic acid]
8.00	Cc1nn(C)c(Sc2cc(O[C@@H](C)C(=O)O)c(Cl)cc2Cl)c1C [Example 115, (2S)-2-{2,4-dichloro-5-[(1,3,4-trimethyl-1H-pyrazol-5-yl)thio]phenoxy}propionic acid]
8.00	CCc1c(C(F)(F)F)nn(C)c1Oc1cc(O[C@@H](C)C(=O)O)c(Cl)cc1Cl [Example 76, (2S)-2-(2,4-dichloro-5-{[4-ethyl-1-methyl-3-(trifluoromethyl)-1H-pyrazol-5-yl]oxy}phenoxy)propionic acid]
8.03	C[C@H](Oc1cc(Oc2c3c(nn2C)CCCC3)c(Cl)cc1Cl)C(=O)O [Example 31, (2S)-2-{2,4-dichloro-5-[(2-methyl-4,5,6,7-tetrahydro-2H-indazol-3-yl)oxy]phenoxy}propionic acid]
8.24	C[C@H](Oc1cc(Oc2c3ccccc3nn2C)c(Cl)cc1Cl)C(=O)O [Example 30, (2S)-2-{2,4-dichloro-5-[(2-methyl-2H-indazol-3-yl)oxy]phenoxy}propionic acid]
8.34	C=Cc1c(C(C)C)nn(C)c1Oc1cc(O[C@@H](C)C(=O)O)c(Cl)cc1Cl [Example 43, (2S)-2-{2,4-dichloro-5-[(3-isopropyl-1-methyl-4-vinyl-1H-pyrazol-5-yl)oxy]phenoxy}propionic acid]
